Measured values: patent publication US20240132431A1, “METHOD FOR ALKYLATING ACIDIC FUNCTIONAL GROUP” (Chugai Seiyaku Kabushiki Kaisha, priority 2021, published 2024)

Target: T1, Bcl-2 protein (Recombinant Human Bcl-2 Protein) (Homo sapiens, UniProt P10415)
T1 construct: purchased Novus NBP2-34889
Assay: Binding evaluation of mixture library compounds to Bcl-2 using AS-MS (affinity selection mass spectrometry)
Conditions: for ASMS ratio (%) n = 1 / ASMS ratio (%) n = 2: ASMS Ratio(%)=(A−C)/B×100; for ASMS ratio (%) n = 1: replicate n = 1; for ASMS ratio (%) n = 2: replicate n = 2
In short: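 Bcl-2 binding is scored from LC/MS signal retained with protein through gel-filtration spin columns, normalised to unfiltered and protein-free controls. Incubation: 20 μM protein, […] per compound, 1 h, 23° C.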

[1] = AS-MS on the mixture of 1200 library compounds
[2] = AS-MS, mixture of 1200 compounds, Bcl-2

T1 sequence (P10415 whole entry): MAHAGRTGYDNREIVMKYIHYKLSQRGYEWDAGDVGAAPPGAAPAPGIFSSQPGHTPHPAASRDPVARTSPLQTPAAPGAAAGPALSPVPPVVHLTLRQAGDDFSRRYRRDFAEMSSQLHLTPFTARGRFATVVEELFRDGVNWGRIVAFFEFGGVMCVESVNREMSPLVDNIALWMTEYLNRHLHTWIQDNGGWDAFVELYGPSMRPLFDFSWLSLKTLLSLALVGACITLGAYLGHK

Compound | ASMS ratio (%) (n = 1) | ASMS ratio (%) (n = 2) | ASMS ratio (%) n = 1 [1] | ASMS ratio (%) n = 2 [1] | also measured
CCOc1cncc(-c2cc(C(=O)N3CCN(c4ccc(C(=O)NS(=O)(=O)C(C)(C)C)cc4)CC3)cc(C(F)(F)F)c2)c1 [B2L040-01, N-tert-Butylsulfonyl-4-[4-[3-(5-ethoxypyridin-3-yl)-5-(trifluoromethyl)benzoyl]piperazin-1-yl]benzamide] | −0.2% | 1.0% | – | – | –
CCOc1cccc(-c2cc(OC)c(CN3CCN(c4ccc(C(=O)NS(=O)(=O)CCC(F)(F)F)nn4)CC3)c(OC)c2)c1 [B2N085-01] | 0.0% | 0.0% | – | – | –
CCOc1cncc(-c2ccc(CN3CCN(c4ccc(C(=O)NS(C)(=O)=O)cc4)CC3)c3ccccc23)c1 [B2I066-01, 4-[4-[[4-(5-Ethoxypyridin-3-yl)naphthalen-1-yl]methyl]piperazin-1-yl]-N-methylsulfonylbenzamide] | 0.0% | 0.0% | – | – | –
CCOc1cncc(-c2ccccc2CN2CCN(c3ccc(C(=O)NS(=O)(=O)CCC(F)(F)F)cc3)CC2)c1 [B2N046-01, 4-[4-[[2-(5-Ethoxypyridin-3-yl)phenyl]methyl]piperazin-1-yl]-N-(3,3,3-trifluoropropylsulfonyl)benzamide] | 0.0% | −1.2% | – | – | –
CCOc1cncc(-c2ccc(C(=O)N3CCN(c4ccc(C(=O)Nc5ccc(OC)cc5)cc4)CC3)cc2C)c1 [B1O026-01, 4-[4-[4-(5-Ethoxypyridin-3-yl)-3-methylbenzoyl]piperazin-1-yl]-N-(4-methoxyphenyl)benzamide] | – | – | 1.7% | −1.5% | –
CCOc1cncc(-c2cc(CN3CCN(c4ccc(C(=O)NS(=O)(=O)C(C)(C)C)cc4)CC3)cc(C(F)(F)F)c2)c1 [B2L062-01, N-tert-Butylsulfonyl-4-[4-[[3-(5-ethoxypyridin-3-yl)-5-(trifluoromethyl)phenyl]methyl]piperazin-1-yl]benzamide] | 0.0% | 0.0% | – | – | –
CCOc1cccc(-c2cc(CN3CCN(c4ccc(C(=O)NS(=O)(=O)c5ccc(NCCSc6ccccc6)c([N+](=O)[O-])c5)nn4)CC3)cc(OC(C)C)c2)c1 [B2Q083-01, 6-[4-[[3-(3-Ethoxyphenyl)-5-propan-2-yloxyphenyl]methyl]piperazin-1-yl]-N-[3-nitro-4-(2-phenylsulfanylethylamino)phenyl]sulfonylpyridazine-3-carboxamide] | – | – | – | – | ASMS ratio (%) n = 2 (AS-MS, mixture library, Bcl-2): 0.0%
4-[4-[[4-(3-Ethoxyphenyl)-2,6-dimethoxyphenyl]methyl]piperazin-1-yl]-N-propylbenzamide [B1M020-01] | – | – | – | – | ASMS ratio (%) n = 1 [2]: 0.0%; ASMS ratio (%) n = 2 [2]: 0.0%
CCOc1cncc(-c2cnn(-c3cc(C(=O)N4CCN(c5ccc(C(=O)NS(=O)(=O)CC67CC8CC(CC(C8)C6)C7)cc5)CC4)cc(C(F)(F)F)c3)c2)c1 [B2A044-01, N-(1-Adamantylmethylsulfonyl)-4-[4-[3-[4-(5-ethoxypyridin-3-yl)pyrazol-1-yl]-5-(trifluoromethyl)benzoyl]piperazin-1-yl]benzamide] | – | – | – | – | ASMS ratio (%) n = 1 (AS-MS, mixture library, Bcl-2): 0.7%; ASMS ratio (%) n = 2 (AS-MS, mixture library, Bcl-2): −0.2%
CCOc1cncc(-c2cc(OC)c(CN3CCN(c4ccc(C(=O)NS(=O)(=O)c5ccc(NCCSc6ccccc6)c([N+](=O)[O-])c5)nn4)CC3)c(OC)c2)c1 [B2Q086-01, 6-[4-[[4-(5-Ethoxypyridin-3-yl)-2,6-dimethoxyphenyl]methyl]piperazin-1-yl]-N-[3-nitro-4-(2-phenylsulfanylethylamino)phenyl]sulfonylpyridazine-3-carboxamide] | – | – | – | – | ASMS ratio (%) n = 1 (AS-MS, mixture library, Bcl-2): −39.4%; ASMS ratio (%) n = 2 (AS-MS, mixture library, Bcl-2): 0.0%
CCOc1cccc(-c2ccc(C(C)N3CCN(c4ccc(C(=O)NS(C)(=O)=O)cc4)CC3)c(F)c2)c1 (stereo not drawn) [B2I099-01, 4-[4-[1-[4-(3-Ethoxyphenyl)-2-fluorophenyl]ethyl]piperazin-1-yl]-N-methylsulfonylbenzamide] | – | 0.0% | – | – | –
CCOc1cccc(-c2cc(C(=O)N3CCN(c4ccc(C(=O)NS(=O)(=O)C(C)(C)C)cc4)CC3)cc(C(F)(F)F)c2)c1 [B2L039-01, N-tert-Butylsulfonyl-4-[4-[3-(3-ethoxyphenyl)-5-(trifluoromethyl)benzoyl]piperazin-1-yl]benzamide] | 0.0% | 0.0% | – | – | –
CCOc1cncc(-c2cc(CN3CCN(c4ccc(C(=O)NS(=O)(=O)C(C)(C)C)nn4)CC3)cc(OC(C)C)c2)c1 [B2L084-01, N-tert-Butylsulfonyl-6-[4-[[3-(5-ethoxypyridin-3-yl)-5-propan-2-yloxyphenyl]methyl]piperazin-1-yl]pyridazine-3-carboxamide] | −3.0% | −1.9% | – | – | –
CCOc1cccc(-c2cc(CN3CCN(c4ccc(C(=O)N(CC)CC)nn4)CC3)cc(OCC)c2)c1 [B4J081-01, 6-[4-[[3-Ethoxy-5-(3-ethoxyphenyl)phenyl]methyl]piperazin-1-yl]-N,N-diethylpyridazine-3-carboxamide] | – | – | – | – | ASMS ratio (%) n = 1 (AS-MS, mixture library, Bcl-2): 0.0%; ASMS ratio (%) n = 2 (AS-MS, mixture library, Bcl-2): 0.0%

The next lines start with results.

ASMS ratio (%) (n = 1) | ASMS ratio (%) (n = 2) | ASMS ratio (%) n = 1 [1] | ASMS ratio (%) n = 2 [1] | Compound | also measured
– | – | 10.7% | −17.2% | CCOc1cncc(-c2ccc(CN3CCN(c4ccc(C(=O)N(C)CC56CC7CC(CC(C7)C5)C6)nn4)CC3)cc2C)c1 [B3A074-01, N-(1-Adamantylmethyl)-6-[4-[[4-(5-ethoxypyridin-3-yl)-3-methylphenyl]methyl]piperazin-1-yl]-N-methylpyridazine-3-carboxamide] | –
– | – | −39.8% | 0.0% | CCOc1cncc(-c2ccc(C(C)N3CCN(c4ccc(C(=O)N(C)CC56CC7CC(CC(C7)C5)C6)cc4)CC3)c(F)c2)c1 (stereo not drawn) [B3A100-01, N-(1-Adamantylmethyl)-4-[4-[1-[4-(5-ethoxypyridin-3-yl)-2-fluorophenyl]ethyl]piperazin-1-yl]-N-methylbenzamide] | –
– | – | 1.3% | −0.6% | CCOc1cncc(-c2ccccc2CCC(=O)N2CCN(c3ccc(C(=O)N(C)CC45CC6CC(CC(C6)C4)C5)cc3)CC2)c1 [B3A034-01, N-(1-Adamantylmethyl)-4-[4-[3-[2-(5-ethoxypyridin-3-yl)phenyl]propanoyl]piperazin-1-yl]-N-methylbenzamide] | –
6.4% | 0.0% | – | – | CCOc1cncc(C#Cc2cncc(C(=O)N3CCN(c4ccc(C(=O)NS(=O)(=O)c5ccc(NCCSc6ccccc6)c(C(F)(F)F)c5)cc4)CC3)c2)c1 [B2R032-01, 4-[4-[5-[2-(5-Ethoxypyridin-3-yl)ethynyl]pyridine-3-carbonyl]piperazin-1-yl]-N-[4-(2-phenylsulfanylethylamino)-3-(trifluoromethyl)phenyl]sulfonylbenzamide] | –
– | – | 5.8% | −0.2% | CCOc1cncc(-c2cc(CN3CCN(c4ccc(C(=O)N(C)CC56CC7CC(CC(C7)C5)C6)nn4)CC3)cc(OC(F)(F)F)c2)c1 [B3A090-01, N-(1-Adamantylmethyl)-6-[4-[[3-(5-ethoxypyridin-3-yl)-5-(trifluoromethoxy)phenyl]methyl]piperazin-1-yl]-N-methylpyridazine-3-carboxamide] | –
– | – | 12.5% | 9.9% | CCOc1cccc(-c2ccc(CN3CCN(c4ccc(C(=O)N(C)CC56CC7CC(CC(C7)C5)C6)cc4)CC3)c(OC)c2)c1 [B3A053-01, N-(1-Adamantylmethyl)-4-[4-[[4-(3-ethoxyphenyl)-2-methoxyphenyl]methyl]piperazin-1-yl]-N-methylbenzamide] | –
– | – | 0.0% | 0.0% | CCOc1cccc(C#Cc2cncc(C(=O)N3CCN(c4ccc(C(=O)N(CC)CC)nn4)CC3)c2)c1 [B4J009-01, 6-[4-[5-[2-(3-Ethoxyphenyl)ethynyl]pyridine-3-carbonyl]piperazin-1-yl]-N,N-diethylpyridazine-3-carboxamide] | –
– | – | 10.8% | −12.7% | CCOc1cccc(-c2cc(CN3CCN(c4ccc(C(=O)N(C)CC56CC7CC(CC(C7)C5)C6)cc4)CC3)cc(OCC)c2)c1 [B3A055-01, N-(1-Adamantylmethyl)-4-[4-[[3-ethoxy-5-(3-ethoxyphenyl)phenyl]methyl]piperazin-1-yl]-N-methylbenzamide] | –
– | – | 12.5% | −8.4% | CCOc1cccc(-c2cnn(-c3cc(C(=O)N4CCN(c5ccc(C(=O)N(C)CC67CC8CC(CC(C8)C6)C7)nn5)CC4)cc(C(F)(F)F)c3)c2)c1 [B3A021-01, N-(1-Adamantylmethyl)-6-[4-[3-[4-(3-ethoxyphenyl)pyrazol-1-yl]-5-(trifluoromethyl)benzoyl]piperazin-1-yl]-N-methylpyridazine-3-carboxamide] | –
– | – | −0.5% | −1.7% | CCOc1cncc(-c2cc(C(=O)N3CCN(c4ccc(C(=O)N(CC)CC)nn4)CC3)cc(C(F)(F)F)c2)c1 [B4J018-01, 6-[4-[3-(5-Ethoxypyridin-3-yl)-5-(trifluoromethyl)benzoyl]piperazin-1-yl]-N,N-diethylpyridazine-3-carboxamide] | –
– | – | 2.2% | 2.8% | CCOc1cncc(-c2cc(CN3CCN(c4ccc(C(=O)N(C)CC56CC7CC(CC(C7)C5)C6)cc4)CC3)cc(C(F)(F)F)c2)c1 [B3A062-01, N-(1-Adamantylmethyl)-4-[4-[[3-(5-ethoxypyridin-3-yl)-5-(trifluoromethyl)phenyl]methyl]piperazin-1-yl]-N-methylbenzamide] | –
